From patent US10954252B1, “Inhibitors of human immunodeficiency virus replication” (ViiV HEALTHCARE UK (NO.5) LIMITED, priority 2017, dated 2021)

What was measured:
[1] = system: recombinant NL4-3 virus (nef section replaced with Renilla luciferase gene) in MT-2 cells; assay: HIV cell culture assay (antiviral activity, luciferase readout); type: cell-based; conditions: MT-2 cells infected for 4-5 days with recombinant NL4-3 luciferase virus
In short: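 NL4-3 reporter virus carrying Renilla luciferase in place of part of nef, produced in 293T cells, was used to infect MT-2 cells for 4-5 days with serial compound dilutions. Luciferase activity was read with a live-cell substrate; EC50 derived from the median effect equation.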

[2] = Compound cytotoxicity, XTT-based colorimetric assay; type: cell-based; conditions: human, uninfected MT2 cells
In short: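 CC50 from uninfected MT2 cells run under the antiviral-assay protocol without virus. Viability read on day 4 by XTT colorimetric assay.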

Compound | EC50 ([1]; Renilla, NL43, Table 1a) | CC50 at 4 days ([2]; Table 1a, day 4, XTT) | CC50 at 4 days ([2]; Table 1, day 4, XTT) | also measured
COc1ccc(-n2c([C@H](Cc3cc(F)cc(F)c3)NC(=O)Cn3nc(C(F)F)c4c3C(F)(F)[C@@H]3C[C@H]43)nc3ncccc3c2=O)cn1 [Example 29, 2-[(2S,4R)-9-(difluoromethyl)-5,5-difluoro-7,8-diazatricyclo[4.3.0.0^2,4]nona-1(6),8-dien-7-yl]-N-[(1S)-2-(3,5-difluorophenyl)-1-[3-(6-methoxypyridin-3-yl)-4-oxo-3H,4H-pyrido[2,3-d]pyrimidin-2-yl]ethyl]acetamide] | 26 nM | > 10000 nM |  | 
O=C(Cn1nc(C(F)F)c2c1C(F)(F)[C@@H]1C[C@H]21)N[C@@H](Cc1cc(F)cc(F)c1)c1nc2ccccc2nc1-c1ccc2c(c1)C(=O)NC2 [Example 157, 2-((3bS,4aR)-3-(difluoromethyl)-5,5-difluoro-3b,4,4a,5-tetrahydro-1H-cyclopropa[3,4]cyclopenta[1,2-c]pyrazol-1-yl)-N—((S)-2-(3,5-difluorophenyl)-1-(3-(3-oxoisoindolin-5-yl)quinoxalin-2-yl)ethyl)acetamide] | 10.4 nM | > 10000 nM |  | 
CC(C)c1ccc(-c2c(C(Cc3cc(F)cc(F)c3)NC(=O)Cn3nc(C(F)F)c4c3C(F)(F)[C@@H]3C[C@H]43)ncc3[nH]ncc23)cn1 (mixture of isomers) [Example 10.1] |  |  | > 10000 nM | EC50 ([1]; Renilla, NL43, Table 1): 140 nM
CC(C)n1nc(NS(C)(=O)=O)c2c(Cl)ccc(-n3c(C(Cc4cc(F)cc(F)c4)NC(=O)Cn4nc(C(F)F)c5c4C(F)(F)[C@@H]4C[C@H]54)nc4ncccc4c3=O)c21 (mixture of isomers) [Example 43.1] | 30 nM | > 10000 nM |  | 
CC(C)(C)c1ccc2c(=O)n(-c3ccc(Cl)c4c(NS(C)(=O)=O)nn(CC(F)F)c34)c([C@H](Cc3cc(F)cc(F)c3)NC(=O)Cn3nc(C(F)F)c4c3C(F)(F)[C@@H]3C[C@H]43)nc2c1 [Example 217, N—((S)-1-(7-(tert-Butyl)-3-(4-chloro-1-(2,2-difluoroethyl)-3-(methylsulfonamido)-1H-indazol-7-yl)-4-oxo-3,4-dihydroquinazolin-2-yl)-2-(3,5-difluorophenyl)ethyl)-2-((3bS,4aR)-3-(difluoromethyl)-5,5-difluoro-3b,4,4a,5-tetrahydro-1H-cyclopropa[3,4]cyclopenta[1,2c]pyrazol-1-yl)acetamide] | 0.25 nM | > 1000 nM |  | 
CC(C)c1ccc(-n2c([C@H](Cc3cc(F)cc(F)c3)NC(=O)Cn3nc(C(F)F)c4c3C(F)(F)[C@@H]3C[C@H]43)nc3ccccc3c2=O)cn1 [Example 10.34] |  |  | 7900 nM | EC50 ([1]; Renilla, NL43, Table 1): 15 nM
COc1ccc2c(=O)n(-c3ccc(Cl)c4c(NS(=O)(=O)C5CC5)nn(CC(F)F)c34)c([C@H](Cc3cc(F)cc(F)c3)NC(=O)Cn3ccc(C4CC4)n3)nc2n1 (single isomer, unassigned) [Example 57.2] | 0.33 nM | > 1000 nM |  | 
CC(C)c1ccc(-n2c([C@H](Cc3cc(F)cc(F)c3)NC(=O)Cn3nc(C(F)F)c4c3C(F)(F)[C@@H]3C[C@H]43)nc3ncccc3c2=O)cc1 [Example 10.35] |  |  | 1900 nM | EC50 ([1]; Renilla, NL43, Table 1): 1.7 nM
CN1Cc2ccc(-c3cc4[nH]ncc4nc3[C@H](Cc3cc(F)cc(F)c3)NC(=O)Cn3nc(C(F)F)c4c3C(F)(F)[C@@H]3C[C@H]43)cc2C1=O [Example 23, 2-((3bS,4aR)-3-(difluoromethyl)-5,5-difluoro-3b,4,4a,5-tetrahydro-1H-cyclopropa[3,4]cyclopenta[1,2-c]pyrazol-1-yl)-N—((S)-2-(3,5-difluorophenyl)-1-(6-(2-methyl-3-oxoisoindolin-5-yl)-1H-pyrazolo[4,3-b]pyridin-5-yl)ethyl)acetamide] | 21.8 nM | 10000 nM |  | 
Cc1cc(C)c2c(=O)n(-c3ccc(Cl)c4c(NS(C)(=O)=O)nn(C)c34)c(C(Cc3cc(F)cc(F)c3)NC(=O)Cn3nc(C(F)F)c4c3C(F)(F)[C@@H]3C[C@H]43)nc2n1 (mixture of isomers) [Example 42.1] | 12 nM | > 10000 nM |  | 
COc1ccc2c(=O)n(-c3ccc(Cl)c4c(NS(=O)(=O)C5CC5)nn(CC(F)F)c34)c([C@H](Cc3cc(F)cc(F)c3)NC(=O)Cn3nc(C(F)F)c4c3C(F)(F)[C@@H]3C[C@H]43)nc2c1 (single isomer, unassigned) [Example 192] | 0.04 nM | > 1000 nM |  | 
Cn1nc(NS(C)(=O)=O)c2c(Cl)ccc(-n3c([C@H](Cc4cc(F)cc(F)c4)NC(=O)Cn4nc(C(F)F)c5c4C(F)(F)[C@@H]4C[C@H]54)nc4cc(C(C)(F)F)ccc4c3=O)c21 (mixture of isomers) [Example 195, N—((S)-1-(3-(4-chloro-1-methyl-3-(methylsulfonamido)-1H-indazol-7-yl)-7-(1,1-difluoroethyl)-4-oxo-3,4-dihydroquinazolin-2-yl)-2-(3,5-difluorophenyl)ethyl)-2-((3bS,4aR)-3-(difluoromethyl)-5,5-difluoro-3b,4,4a,5-tetrahydro-1H-cyclopropa[3,4]cyclopenta[1,2-c]pyrazol-1-yl)acetamide] | 74.4 nM | > 1000 nM |  | 
O=C(Cc1c[nH]c2ccc(F)cc12)NC(Cc1cc(F)cc(F)c1)c1nc2cn[nH]c2cc1-c1ccc2scnc2c1 (single isomer, unassigned) [Example 3.5, N-(1-(6-(benzo[d]thiazol-5-yl)-1H-pyrazolo[4,3-b]pyridin-5-yl)-2-(3,5-difluorophenyl)ethyl)-2-(5-fluoro-1H-indol-3-yl)acetamide] |  |  | 32100 nM | EC50 ([1]; Table 1): 20 nM
COc1ccc2c(=O)n(-c3ccc(Cl)c4c(NS(C)(=O)=O)nn(CC(F)F)c34)c([C@H](Cc3cc(F)cc(F)c3)NC(=O)Cn3nc(C(F)F)c4c3C(F)(F)[C@@H]3C[C@H]43)nc2c1 (single isomer, unassigned) [Example 191] | 0.06 nM | > 1000 nM |  | 
COc1ccc(-n2c([C@H](Cc3cc(F)cc(F)c3)NC(=O)Cc3c[nH]c4ccc(O)cc34)nc3ncccc3c2=O)cc1 [Example 9.2, (S)—N-(2-(3,5-difluorophenyl)-1-(3-(4-methoxyphenyl)-4-oxo-3,4-dihydropyrido[2,3-d]pyrimidin-2-yl)ethyl)-2-(5-hydroxy-1H-indol-3-yl)acetamide] |  |  | > 10000 nM | EC50 ([1]; Renilla, NL43, Table 1): 4.7 nM
COc1ccc2c(=O)n(-c3ccc(Cl)c4c(NS(C)(=O)=O)nn(C)c34)c(C(Cc3cc(F)cc(F)c3)NC(=O)Cn3nc(C(F)F)c4c3C(F)(F)C3CC43)nc2n1 (stereo in doubt) [Example 13.1, N—((S)-1-(3-(4-chloro-1-methyl-3-(methylsulfonamido)-1H-indazol-7-yl)-7-methoxy-4-oxo-3,4-dihydropyrido[2,3-d]pyrimidin-2-yl)-2-(3,5-difluorophenyl)ethyl)-2-((3bS,4aR)-3-(difluoromethyl)-5,5-difluoro-3b,4,4a,5-tetrahydro-1H-cyclopropa[3,4]cyclopenta[1,2-c]pyrazol-1-yl)acetamide] |  |  | > 10000 nM | EC50 ([1]; Renilla, NL43, Table 1): 14300 nM
COc1ccc2c(=O)n(-c3ccc(Cl)c4c(NS(=O)(=O)C5CC5)nn(CC(F)F)c34)c([C@H](Cc3cc(F)cc(F)c3)NC(=O)Cn3nc(C(F)F)c4c3C(F)(F)[C@@H]3C[C@H]43)nc2n1 (mixture of isomers) [Example 56.2, N-[(1S)-1-{3-[4-chloro-3-cyclopropanesulfonamido-1-(2,2-difluoroethyl)-1H-indazol-7-yl]-7-methoxy-4-oxo-3H,4H-pyrido[2,3-d]pyrimidin-2-yl}-2-(3,5-difluorophenyl)ethyl]-2-[(2S,4R)-9-(difluoromethyl)-5,85-difluoro-7,8-diazatricyclo[4.3.0.0^2,4]nona-1(6),8-dien-7-yl]acetamide] | 0.022 nM | > 1000 nM |  | 
Cn1nc(NS(C)(=O)=O)c2c(Cl)ccc(-n3c([C@H](Cc4cc(F)cc(F)c4)NC(=O)Cn4nc(C(F)F)c5c4C(F)(F)[C@@H]4C[C@H]54)nc4ccc(F)c(Cl)c4c3=O)c21 (single isomer, unassigned) [Example 160] |  | > 1000 nM |  | EC50 ([1]; Table 1a): 0.18 nM
O=C(Cn1nc(C(F)F)c2c1C(F)(F)[C@@H]1C[C@H]21)N[C@@H](Cc1cc(F)cc(F)c1)c1nc2cn[nH]c2cc1-c1ccc(F)c(C(=O)NS(=O)(=O)C2CC2)c1 [Example 10.28, N-(cyclopropylsulfonyl)-5-(5-((S)-1-(2-((3bS,4aR)-3-(difluoromethyl)-5,5-difluoro-3b,4,4a,5-tetrahydro-1H-cyclopropa[3,4]cyclopenta[1,2-c]pyrazol-1-yl)acetamido)-2-(3,5-difluorophenyl)ethyl)-1H-pyrazolo[4,3-b]pyridin-6-yl)-2-fluorobenzamide] |  |  | > 10000 nM | EC50 ([1]; Renilla, NL43, Table 1): 510 nM
COc1cc(OC)c2c(=O)n(-c3ccc(Cl)c4c(NS(C)(=O)=O)nn(C)c34)c([C@H](Cc3cc(F)cc(F)c3)NC(=O)Cn3nc(C(F)F)c4c3C(F)(F)[C@@H]3C[C@H]43)nc2c1 (single isomer, unassigned) [Example 181] |  | > 1000 nM |  | EC50 ([1]; Table 1a): 23.1 nM
O=C(Cn1nc(C(F)F)c2c1C(F)(F)[C@@H]1C[C@H]21)N[C@@H](Cc1cc(F)cc(F)c1)c1nc2ncccc2c(=O)n1-c1ccc(Cl)c2c(NS(=O)(=O)C3CC3)nn(CC(F)F)c12 (mixture of isomers) [Example 45.2, N-[(1S)-1-{3-[4-chloro-3-cyclopropanesulfonamido-1-(2,2-difluoroethyl)-1H-indazol-7-yl]-4-oxo-3H,4H-pyrido[2,3-d]pyrimidin-2-yl}-2-(3,5-difluorophenyl)ethyl]-2-[(2S,4R)-9-(difluoromethyl)-5,5-difluoro-7,8-diazatricyclo[4.3.0.0^2,4]nona-1(6),8-dien-7-yl]acetamide] | 0.024 nM | > 1000 nM |  | 
